The target in this assay is T1, PDK1 (Homo sapiens, UniProt O15530).
T1 construct: His6 (N)
T1 sequence (O15530 51-556 limits assumed): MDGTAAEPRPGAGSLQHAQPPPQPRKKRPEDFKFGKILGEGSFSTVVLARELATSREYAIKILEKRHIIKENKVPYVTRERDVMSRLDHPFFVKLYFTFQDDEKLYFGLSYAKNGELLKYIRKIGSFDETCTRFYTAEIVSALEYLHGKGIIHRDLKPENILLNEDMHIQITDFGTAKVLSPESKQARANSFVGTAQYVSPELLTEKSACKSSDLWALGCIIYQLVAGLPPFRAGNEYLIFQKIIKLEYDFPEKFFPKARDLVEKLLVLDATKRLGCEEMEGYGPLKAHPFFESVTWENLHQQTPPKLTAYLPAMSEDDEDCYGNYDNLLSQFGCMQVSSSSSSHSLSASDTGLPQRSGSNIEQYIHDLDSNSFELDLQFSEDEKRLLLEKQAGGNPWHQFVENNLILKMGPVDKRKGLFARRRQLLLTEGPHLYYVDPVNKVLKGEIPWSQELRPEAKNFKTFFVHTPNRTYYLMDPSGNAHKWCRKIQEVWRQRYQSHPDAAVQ
The assay is described as follows: Test for the inhibition of PDK1 (flashplate, 33P-ATP). Type of assay: biochemical. Particulars: His6-PDK1 3.4 nM, 4 μM ATP, 30° C., 60 min. As for the experimental part: The experimental batches are carried out in a flashplate system with 384 wells/microtitration plate.
In each case, the PDK1 sample His6-PDK1(1-50)(3.4 nM), the PDK1 substrate biotin-bA-bA-[…] (400 nM), 4 μM ATP (with 0.2 μCi of ^33 P-ATP/well) and the test substance in 50 μl of conventional experimental solution per well are incubated at 30° C. for 60 min. The test substances are employed in corresponding concentrations (if desired in a dilution series). The control is carried out without test substance. The reaction is stopped using standard methods and washed. The activity of the kinase is measured via the incorporated radioactivity in top count. In order to determine the non-specific kinase reaction (blank value), the experimental batches are carried out in the presence of 100 nM staurosporin.
The radioactivity (decompositions per minute) of the blank value (no use of test substance in the presence of staurosporin) is subtracted from all other radioactivity values. The controls (kinase activity without test substance) are set equal to 100 percent and all other radioactivity values (after subtracting the blank value) are expressed set in relation thereto (for example in % of the control).
[formula] IC50 values (50% inhibition) are determined with the aid of statistics programmes, such as, for example, RS1.

Where only a bound is given, the exact number is not on record here.

One may read the IC50 as the concentration that inhibits the measured activity by half. The low end stands for higher potency, the high end for lower potency. `COCOC(C)(c1cc(-c2c[nH]c3ncc(-c4cnn(C)c4)cc23)nc(N)n1)c1cccc(Cl)c1F` (stereo not shown) [A29, 4-[1-(3-chloro-2-fluorophenyl)-1-methoxymethoxyethyl]-6-[5-(1-methyl-1H-pyrazol-4-yl)-1H-pyrrolo[2,3-b]pyridin-3-yl]pyrimidin-2-ylamine]: half-maximal inhibition (IC50) was put at 40 nM.

In turn, `CCC(OCOC)(c1cc(-c2c[nH]c3ncc(-c4cnn(C)c4)cc23)nc(N)n1)c1cccc(Cl)c1F` (stereo not shown) [A30, 4-[1-(3-chloro-2-fluorophenyl)-1-methoxymethoxypropyl]-6-[5-(1-methyl-1H-pyrazol-4-yl)-1H-pyrrolo[2,3-b]pyridin-3-yl]pyrimidin-2-ylamine] had an IC50 of 130 nM.

`Cn1cc(-c2cnc3[nH]cc(-c4cc(C(C)(O)c5ccc(CO)cc5)nc(N)n4)c3c2)cn1` (stereo not shown) [A31, 1-{2-amino-6-[5-(1-methyl-1H-pyrazol-4-yl)-1H-pyrrolo[2,3-b]pyridin-3-yl]-pyrimidin-4-yl}-1-(4-hydroxymethylphenyl)ethanol] yielded an IC50 of 44 nM.

With `CCC(OCOC)(c1cc(-c2c[nH]c3ncc(-c4cnn(C)c4)cc23)nc(N)n1)c1ccncc1F` (stereo not shown) [A32, 4-[1-(3-fluoropyridin-4-yl)-1-methoxymethoxypropyl]-6-[5-(1-methyl-1H-pyrazol-4-yl)-1H-pyrrolo[2,3-b]pyridin-3-yl]pyrimidin-2-ylamine], the IC50 amounted to 25 nM.

On to `CCC(OCOC)(c1ccncc1)c1cc(-c2c[nH]c3ncc(Br)cc23)nc(N)n1` (stereo not shown) [A34, 4-(5-bromo-1H-pyrrolo[2,3-b]pyridin-3-yl)-6-(1-methoxymethoxy-1-pyridin-4-ylpropyl)pyrimidin-2-ylamine], for which the IC50 amounted to 170 nM.

In the case of `CCCC(OCOC)(c1ccncc1)c1cc(-c2c[nH]c3ncc(-c4cnn(C)c4)cc23)nc(N)n1` (stereo not shown) [A36, 4-(1-methoxymethoxy-1-pyridin-4-ylbutyl)-6-[5-(1-methyl-1H-pyrazol-4-yl)-1H-pyrrolo[2,3-b]pyridin-3-yl]pyrimidin-2-ylamine], the IC50 was 56 nM.

Turning to `CCC(OCOC)(c1cc(-c2c[nH]c3ncc(-c4cnn(C)c4)cc23)nc(N)n1)c1ccncc1F` (stereo not shown) [A37, 4-[1-(3-fluoropyridin-4-yl)-1-methoxymethoxypropyl]-6-[5-(1-methyl-1H-pyrazol-4-yl)-1H-pyrrolo[2,3-b]pyridin-3-yl]pyrimidin-2-ylamine], the IC50 is 25 nM.

As for `CC(=O)N1CCN(c2ccc(-c3cnc4[nH]cc(-c5cc(C(C)(O)c6ccccc6)nc(N)n5)c4c3)cn2)CC1` (stereo not shown) [A38, 1-[4-(5-{3-[2-amino-6-(1-hydroxy-1-phenylethyl)pyrimidin-4-yl]-1H-pyrrolo-[2,3-b]pyridin-5-yl}pyridin-2-yl)piperazin-1-yl]ethanone], half-maximal inhibition (IC50) required 140 nM.

For `CC(O)(c1ccccc1)c1cc(-c2c[nH]c3ncc(-c4cnn(C(F)F)c4)cc23)nc(N)n1` (stereo not shown) [A39, 1-{2-amino-6-[5-(1-difluoromethyl-1H-pyrazol-4-yl)-1H-pyrrolo[2,3-b]pyridin-3-yl]pyrimidin-4-yl}-1-phenylethanol], half-maximal inhibition (IC50) required 91 nM.

As for `CC(O)(c1ccccc1)c1cc(-c2c[nH]c3ncc(-c4cnn(C(F)F)c4)cc23)nc(N)n1` (stereo not shown) [A40, 1-{2-amino-6-[5-(1-difluoromethyl-1H-pyrazol-4-yl)-1H-pyrrolo[2,3-b]pyridin-3-yl]pyrimidin-4-yl}-1-phenylethanol], it took 54 nM to reach half-maximal inhibition (IC50).

For `CC[C@@](O)(c1ccncc1)c1cc(-c2c[nH]c3ncc(-c4cnn(CC(=O)N5CCCCC5)c4)cc23)nc(N)n1` [A46, 2-(4-{3-[2-amino-6-((R)-1-hydroxy-1-pyridin-4-ylpropyl)pyrimidin-4-yl]-1H-pyrrolo[2,3-b]pyridin-5-yl}pyrazol-1-yl)-1-piperidin-1-ylethanone], half-maximal inhibition (IC50) was put at 55 nM.

As for `CC(O)(c1ccccc1)c1cc(-c2c[nH]c3ncc(-c4cnn(Cc5cccs5)c4)cc23)nc(N)n1` (stereo not shown) [A47, 1-{2-amino-6-[5-(1-thiophen-2-ylmethyl-1H-pyrazol-4-yl)-1H-pyrrolo[2,3-b]-pyridin-3-yl]pyrimidin-4-yl}-1-phenylethanol], the midpoint of inhibition, the IC50, lay at 100 nM.

`CC(O)(c1ccccc1)c1cc(-c2c[nH]c3ncc(-c4cnn(S(C)(=O)=O)c4)cc23)nc(N)n1` (stereo not shown) [A48, 1-{2-amino-6-[5-(1-methanesulfonyl-1H-pyrazol-4-yl)-1H-pyrrolo[2,3-b]pyridin-3-yl]pyrimidin-4-yl}-1-phenylethanol] came in with an IC50 of 140 nM.

Molecule `CC(O)(c1cccc(F)c1)c1cc(-c2c[nH]c3ncc(-c4ccc(CO)cc4)cc23)nc(N)n1` (stereo not shown) [A49, 1-{2-amino-6-[5-(4-hydroxymethylphenyl)-1H-pyrrolo[2,3-b]pyridin-3-yl]-pyrimidin-4-yl}-1-(3-fluorophenyl)ethanol] returned an IC50 of 36 nM.

`CC[C@@](OCOC)(c1cccc(F)c1)c1cc(-c2c[nH]c3ncc(Br)cc23)nc(N)n1` [A51, 4-(5-bromo-1H-pyrrolo[2,3-b]pyridin-3-yl)-6-[(R)-1-(3-fluorophenyl)-1-methoxymethoxypropyl]pyrimidin-2-ylamine] came in with an IC50 of 650 nM.

Take `CC[C@](OCOC)(c1cccc(F)c1)c1cc(-c2c[nH]c3ncc(Br)cc23)nc(N)n1` [A52, 4-(5-bromo-1H-pyrrolo[2,3-b]pyridin-3-yl)-6-[(S)-1-(3-fluorophenyl)-1-methoxymethoxypropyl]pyrimidin-2-ylamine]: the IC50 was above 30000 nM.

For the molecule `CCC(OCOC)(c1cccc(F)c1)c1cc(-c2c[nH]c3ncc(Br)cc23)nc(N)n1` (stereo not shown) [A54, 4-(5-bromo-1H-pyrrolo[2,3-b]pyridin-3-yl)-6-[1-(3-fluorophenyl)-1-methoxymethoxypropyl]pyrimidin-2-ylamine], the IC50 is 1500 nM.

Consider `CC(O)(c1cccc(F)c1)c1cc(-c2c[nH]c3ncc(-c4ccc(CC#N)cc4)cc23)nc(N)n1` (stereo not shown) [A55, [4-(3-{2-amino-6-[1-(3-fluorophenyl)-1-hydroxyethyl]pyrimidin-4-yl}-1H-pyrrolo[2,3-b]pyridin-5-yl)phenyl]acetonitrile], for which the IC50 turned out to be 75 nM.

Consider `COCOC(C)(c1ccncc1)c1cc(-c2c[nH]c3ncc(Br)cc23)nc(N)n1` (stereo not shown) [A56, 4-(5-bromo-1H-pyrrolo[2,3-b]pyridin-3-yl)-6-(1-methoxymethoxy-1-pyridin-4-ylethyl)pyrimidin-2-ylamine], for which half-maximal inhibition (IC50) was put at 150 nM.

`CC(O)(c1cccc(F)c1)c1cc(-c2c[nH]c3ncc(-c4cnn(CC(=O)N5CCCCC5)c4)cc23)nc(N)n1` (stereo not shown) [A59, 2-[4-(3-{2-amino-6-[1-(3-fluorophenyl)-1-hydroxyethyl]pyrimidin-4-yl}-1H-pyrrolo[2,3-b]pyridin-5-yl)pyrazol-1-yl]-1-piperidin-1-ylethanone] registered an IC50 of 69 nM.

For `CC(O)(c1ccccc1)c1cc(-c2c[nH]c3ncc(-c4cnn(CCC(=O)NCCN)c4)cc23)nc(N)n1` (stereo not shown) [A60, N-(2-aminoethyl)-3-(4-{3-[2-amino-6-(1-hydroxy-1-phenylethyl)pyrimidin-4-yl]-1H-pyrrolo[2,3-b]pyridin-5-yl}pyrazol-1-yl)propionamide], half-maximal inhibition (IC50) was put at 24 nM.

Turning to `CC(O)(c1ccncc1)c1cc(-c2c[nH]c3ncc(-c4cnn(CC(=O)N5CCCCC5)c4)cc23)nc(N)n1` (stereo not shown) [A61, 2-(4-{3-[2-amino-6-(1-hydroxy-1-pyridin-4-ylethyl)pyrimidin-4-yl]-1H-pyrrolo-[2,3-b]pyridin-5-yl}pyrazol-1-yl)-1-piperidin-1-ylethanone], 2.1 nM corresponded to half-maximal inhibition (IC50).

The values above are taken from patent publication US8575163B2, “Pyrrolopyridinylpyrimidin-2-ylamine derivatives” (Merck Patent GmbH, priority 2009, dated 2013).
